Legend:
NE [1] = assay: AIA model, serum NE activity; type: in vivo, Sprague-Dawley rats; conditions: rat AIA, high dose 60 mg/kg gavage, 15 days
Method: (§1) Thirty 4-week-old male Sprague-Dawley rats (weighing 120–130 g) were randomly divided into 6 groups (5 rats per group) after 1 week of adaptive feeding, namely the normal group, model group, low-dose experimental group (15 mg/kg), medium-dose experimental group (30 mg/kg), high-dose experimental group (60 mg/kg), and positive control group (30 mg/kg). Starting from Day 0 of the experiment, rats in the administration groups and model group were injected intradermally with 0.1 mL of CFA into the left hind paw to induce AIA, while rats in the normal group were injected intradermally with an equal volume (0.1 mL) of normal saline as a control. After 13 consecutive days of feeding, rats treated with CFA successfully developed typical AIA symptoms. […] During the experiment, the body weight, mental state, activity ability, hair color changes, and paw appearance changes of the rats were observed and recorded daily. In addition, on Day 0 of the experiment (baseline period), the basic paw volume of all rats was accurately measured using a plethysmometer, which served as a reference standard for subsequent evaluation of inflammation severity. From Day 13 to Day 28 of the experiment, the paw volume of the rats was measured repeatedly every 3 days. The degree of paw swelling was quantified by calculating the change in paw volume relative to the baseline. […] The cytokine levels in serum were measured. […]

CTSC and NSPs = assay: AIA model, serum CTSC and NSPs activities, stated together; type: in vivo, Sprague-Dawley rats; conditions: rat AIA, low-dose (15 mg/kg) and medium-dose (30 mg/kg) groups
Method: as §1

[2] = Cytotoxicity assay, U937 cell line; type: cell-based; conditions: human, U937 cells
Method: RAW264.7 cells and U937 cells in the logarithmic growth phase were counted and diluted, and the concentrations of the single-cell suspensions of the two types of cells were adjusted to 5 × 10^4 cells/mL and 3 × 10^4 cells/mL, respectively. After thorough mixing, the cells were seeded into a 96-well plate, with 100 μL of cell suspension added to each well. Prepare the working solution of test compounds using the corresponding medium as the solvent, with the concentration of working solution being 2 times the final test concentration (2.5 μM, 5 μM, 10 μM, 20 μM, and 40 μM). Twenty-four hours after cell seeding, the compound working solutions were added to the compound test wells, and the same volume of medium was added to the negative control wells, followed by continuous incubation for another 24 h. Only the wells with the same volume but without cells served as the blank control group. The CellTiter-Lumi™ luminescent cell viability assay kit (Beyotime Biotechnology, Shanghai, China, C0065XL) was used to detect cell viability according to the standard operating procedures. Each group of tests was independently repeated at least 3 times, and IC50 values were calculated using SPSS 10.0.

[3] = system: TNF-α, IL-6, IL-1β, MCP-1, CXCL2 in RAW 264.7 cells; assay: LPS-induced cytokine and chemokine secretion, ELISA; type: cell-based, mouse; conditions: LPS-stimulated RAW 264.7 cells, 24 h, concentration-dependent
Method: RAW264.7 cells in the logarithmic growth phase were counted and diluted to a concentration of 6 × 10^4 cells/mL. After thorough mixing, the cell suspension was seeded into 48-well plates and incubated in a humidified atmosphere containing 5% CO2 at 37 °C. Following 24 h of incubation, the culture medium was carefully aspirated, and the cells were gently washed with phosphate-buffered saline. […] After 1 h of pre-incubation, 30 μL of lipopolysaccharide (1 μg/mL) was added to each well except for the blank control group, which remained unstimulated. Following an additional 24 h incubation under identical conditions, the culture supernatants were collected to assess NO production using the Griess reagent assay. Concentrations of pro-inflammatory cytokines and chemokines were determined using commercially available ELISA kits according to the protocols.

NE [4] = assay: NE activity in blood and bone marrow of mice; type: in vivo, C57BL/6 mice; conditions: 30 mg/kg daily gavage, 7 days
Method: A total of 25 C57BL/6 mice (6–8 weeks old, weighing approximately 20 g, with equal numbers of males and females) were randomly divided into five groups. Mice in the compound-treated groups were orally administered the compound once daily at doses of 0.3, 3, and 30 mg/kg for 7 consecutive days. […] Mice in the normal group were given an equal volume of normal saline at the same time points. The body weight, death rate, and behavior were observed and recorded daily for one week. After 7 days, bone marrow and blood samples were collected from the mice and lysed using 8% Triton X-100 buffer. The lysates were stored at −20 °C until testing. The activity assays for CTSC and NSPs were performed as described above. The mice were anesthetized and the tissues were taken for H&E staining.

intracellular CTSC = molecular target: T1, intracellular CTSC (Homo sapiens, UniProt P53634); assay: CTSC cell-based assay using the U937 cell line; conditions: read-out: Cell-Based Enz (IC50: nM)
T1 construct: endogenous in cells; host or cells: U937
T1 sequence (P53634 25-463): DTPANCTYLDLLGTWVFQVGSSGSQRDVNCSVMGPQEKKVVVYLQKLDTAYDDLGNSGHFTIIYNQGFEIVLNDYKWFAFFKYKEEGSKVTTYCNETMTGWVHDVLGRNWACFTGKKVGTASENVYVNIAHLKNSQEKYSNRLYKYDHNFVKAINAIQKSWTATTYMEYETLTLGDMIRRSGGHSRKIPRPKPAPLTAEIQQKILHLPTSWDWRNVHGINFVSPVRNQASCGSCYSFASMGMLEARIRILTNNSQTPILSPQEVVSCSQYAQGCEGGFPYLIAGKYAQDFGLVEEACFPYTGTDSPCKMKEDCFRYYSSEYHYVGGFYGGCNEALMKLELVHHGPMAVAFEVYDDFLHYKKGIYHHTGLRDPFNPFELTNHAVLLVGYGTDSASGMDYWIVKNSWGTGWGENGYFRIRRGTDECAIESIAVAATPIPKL
Method: Cell-based CTSC enzymatic activity assays were performed in 96-well clear-bottom black microplates. […] The detection substrate, H-Gly-Arg-AFC, was diluted to 100 µM in serum-free medium and stored for later use. U937 cells in the logarithmic growth phase were harvested, washed with PBS, and counted. A single-cell suspension was prepared at a density of 1.0 × 10^6 cells/mL using serum-free medium. 30 µL of cell suspension was seeded into each well of the 96-well plate. To the test wells, 10 µL of the compound working solution was added, while 10 µL of serum-free medium was added to the control wells. The plate was pre-incubated in a cell culture incubator at 37 °C for 3 h. Subsequently, 10 µL of H-Gly-Arg-AFC was added to initiate the enzymatic reaction, and the plate was further incubated at 37 °C for 1 h. Fluorescence measurements were performed using a multimode microplate reader at excitation/emission wavelengths of 400/505 nm. Each group of tests was independently repeated at least 3 times, and IC50 values were calculated using SPSS 10.0.

C[C@@H]1C[C@H]2OC(=O)[C@@]3(C)CCC[C@@](C)([C@@H]23)[C@@]1(O)CCc1ccoc1 [Marrubiin, marrubiin]
serum NE activity, % of control group (NE [1]): ~47% | serum activities of CTSC and NSPs (CTSC and NSPs): no significant reduction effect | IC50 at 24 h [2]: > 10 µM | relative levels of TNF-α, IL-6, IL-1β, MCP-1, CXCL2 [3]: reduced to varying degrees | remaining activity rate of NE (NE [4]; blood): ~9.9% | remaining activity rate of NE (NE [4]; bone marrow): ~20.9% | IC50 (intracellular CTSC): 51.6 ± 3.2 nM

From publication PMC12610274, “Identification of Marrubiin as a Cathepsin C Inhibitor for Treating Rheumatoid Arthritis” (Molecules, 2025)
